Data: publication PMC9166630, “SAR Probing of KX2-391 Provided Analogues With Juxtaposed Activity Profile Against Major Oncogenic Kinases” (Frontiers in Oncology, 2022)
Read-outs that look alike come from different tables or passages of the source.

How the values were obtained:
HL60 leukemia cell line = assay: CellTiter-Blue cell viability assay, HL60; type: cell-based; conditions: Homo sapiens, HL-60; CellTiter-Blue, 48 h; maximum tested concentration 20 µM; read-out: IC50 ± SEM, HL60
Procedure: (§1) HL60, K562, MV4-11 and NB4 were purchased from CLS Cell Line Service GmbH (Eppelheim, Germany). All cell lines were cultured in RPMI-1640 medium supplemented with 10% fetal bovine serum (FBS) (Thermo Fisher Scientific) and 0.1% ciprofloxacin (2.5mg/ml; Cipla Limited; Mumbai, India), and were maintained at 37°C in the presence of 21% O2 and 5% CO2.
(§2) Cell viability was determined using the CellTiter®-Blue Cell Viability Assay kit (Promega, Madison, WI, USA). Approximately 10^4 cells were counted and plated in a 96-well plate in the presence of test compounds ranging from 0.01 to 10 or 20 µM in triplicate and were incubated for 48 h at 37°C in a humidified incubator. After the incubation period was complete, 20 µL of CellTiter®-Blue Cell Viability Assay reagent was added to each well and incubated for additional 2 h for the development of florescence. Florescence was measured at Ex/Em 540/590 on SpectraMax® i3 Multi-Mode microplate reader (Molecular Devices, LLC; San Jose, CA, USA) and plotted against drug concentration to determine the IC50 of the test compounds. The IC50 was obtained by non-linear regression model using GraphPad Prism 6.07 (GraphPad Software, Inc, USA).

[1] = Binding to mouse plasma proteins (equilibrium dialysis); type: in vitro ADME; conditions: 10 µM, 37°C, 22 h dialysis
Procedure: The equilibrium dialysis method for determining plasma protein binding was performed as previously described using 96-well dialyzer plates with molecular weight cutoff of 5K (Harvard Aparatus, Holliston, MA) and a dual-plate rotator set to maximum speed (Harvard Aparatus, Holliston, MA) located in a 37°C incubator with a 10% CO2-atmospheric environment. Assays were run in triplicate. The test compounds were added to CD-1 mouse plasma (Innovative Research, Novi, MI, sodium heparin added as anticoagulant; pH adjusted to 7.4 with 2N HCl on day of use) in DMSO (final DMSO concentration 0.4%) to give 10 µM final concentration. Drug/plasma mixture and buffer (Dulbecco’s phosphate-buffered saline 1X without calcium and magnesium, Mediatech, Inc., Herndon, VA) were placed in their respective sides, wells were capped, and the plate was placed in the rotator and allowed to dialyze for 22 h. Following dialysis, aliquots of buffer and plasma mixture were removed and mixed with aliquots of the opposite matrix in 96-well deep plates. Concentrations of analytes from each side of the dialysis plate were determined by LC/MS/MS on a Waters Xevo TQ instrument as described above using positive electrospray ionization. […] The fraction unbound was calculated by dividing the drug concentration in the buffer side of the dialysis plate by the drug concentration in the plasma side.

[2] = Stability in mouse liver microsomes; type: in vitro ADME; conditions: for half-life: male, CD-1, mouse liver microsomes with NADPH, 37°C, read-out: Stability MLM t1/2; for Mic. Ctrl. Mouse % 60 min: mouse liver microsomes, no NADPH added
Procedure: (§3) Both mouse and human liver microsomes were obtained from Merck KGaA, (Darmstadt, Germany), Cat. No. M9441 (Mouse liver microsomes) and M0317 (Human liver microsomes). Assays were conducted in triplicate in 96-deep well polypropylene plates. […] At five time points, reaction mixture aliquots were transferred to 96-shallow well stop plates on ice containing acetonitrile with 0.1 µM propafenone. […] Standard curves for test compound were generated using 5 concentrations in triplicate that were processed as above but with zero incubation time. Stop plates were centrifuged at 2000 g for 10 min and then supernatant aliquots were transferred to a Waters Aquity® UPLC 700 µL 96-well sample plate with cap mat (Waters, Milford, MA). The amount of compound remaining in the supernatant was quantified by LC/MS/MS using a Waters Xevo TQ MS (electrospray positive mode) coupled to a Waters Aquity® UPLC (BEH column, C18). Propafenone was used as the internal standard. GraphPad® Prism v 5.04 was used for nonlinear fitting of time course data to generate t1/2 values.

[3] = Stability in human liver microsomes; type: in vitro ADME; conditions: for half-life: human liver microsomes with NADPH, 37°C, read-out: Stability HLM t1/2; for Mic. Ctrl. Human % 60 min: human liver microsomes, no NADPH added
Procedure: as §3

[4] = system: MV4-11 leukemia cell line; assay: CellTiter-Blue cell viability assay, MV4-11; type: cell-based; conditions: Homo sapiens, CellTiter-Blue, 48 h, maximum tested concentration 20 µM, read-out: IC50 ± SEM, MV4-11
Procedure: as §1, §2

CYP2C9 = biological target: T1, CYP2C9 (Homo sapiens, UniProt P11712); assay: Inhibition assay of human CYP450 enzymes, 2C9; type: in vitro ADME; conditions: for IC50: fluorescent substrate; for no inhibition of CYP2C9 at concentrations up to: the values are: IC50
T1 construct: purchased Fisher Scientific; host or cells: insect cells (supersomes)
T1 sequence (P11712 whole entry): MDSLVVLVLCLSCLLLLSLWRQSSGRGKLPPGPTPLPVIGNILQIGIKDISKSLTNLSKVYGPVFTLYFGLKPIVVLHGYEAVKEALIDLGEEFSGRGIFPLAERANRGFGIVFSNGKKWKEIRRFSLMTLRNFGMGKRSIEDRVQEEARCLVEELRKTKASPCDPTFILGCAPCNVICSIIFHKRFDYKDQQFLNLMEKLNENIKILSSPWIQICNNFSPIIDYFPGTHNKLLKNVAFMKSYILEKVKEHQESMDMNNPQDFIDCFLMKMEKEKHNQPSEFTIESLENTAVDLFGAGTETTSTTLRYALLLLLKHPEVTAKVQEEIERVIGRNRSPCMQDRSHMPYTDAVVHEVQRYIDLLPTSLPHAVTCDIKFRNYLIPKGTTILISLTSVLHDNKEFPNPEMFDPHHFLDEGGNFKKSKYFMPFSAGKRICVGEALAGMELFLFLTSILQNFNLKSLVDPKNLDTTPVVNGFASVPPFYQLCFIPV
Procedure: (§4) The two compounds 4e and 4n were assessed for their ability to inhibit the three major human CYP450 enzymes, 3A4, 2D6 and 2C9. Assays were run in triplicate. Expressed enzymes in insect supersomes (Fisher Scientific, Waltham, MA) were used to minimize non-specific binding and membrane partitioning issues ([68]). The 3A4 assay uses testosterone as a substrate and analysis was performed by LC/MS/MS on a Waters Xevo TQ instrument as described above using positive electrospray ionization. Assay acceptance criteria was 20% for all standards and 25% for the LLOQ. The 2D6 and 2C9 assays use fluorescent substrates (3-[2-(N,N-diethylamino)ethyl]-7-methoxy-4-methylcoumarin for 2D6; 7-methoxy-4-(trifluoromethyl)coumarin for 2C9) and were analyzed on an Envision plate reader. GraphPad® Prism v 5.04 was used for nonlinear fitting of data to generate IC50 values.

NB4 leukemia cell line = assay: CellTiter-Blue cell viability assay, NB4; type: cell-based, human; conditions: CellTiter-Blue, 48 h, maximum tested concentration 20 µM, read-out: IC50 ± SEM, NB4
Procedure: as §1, §2

CYP2D6 = biological target: T2, CYP2D6 (Homo sapiens, UniProt P10635); assay: Inhibition assay of human CYP450 enzymes, 2D6; type: in vitro ADME; conditions: for IC50: fluorescent substrate; for no inhibition of CYP2D6 at concentrations up to: the values are: IC50
T2 construct: purchased Fisher Scientific; host or cells: insect cells (supersomes)
T2 sequence (P10635 whole entry): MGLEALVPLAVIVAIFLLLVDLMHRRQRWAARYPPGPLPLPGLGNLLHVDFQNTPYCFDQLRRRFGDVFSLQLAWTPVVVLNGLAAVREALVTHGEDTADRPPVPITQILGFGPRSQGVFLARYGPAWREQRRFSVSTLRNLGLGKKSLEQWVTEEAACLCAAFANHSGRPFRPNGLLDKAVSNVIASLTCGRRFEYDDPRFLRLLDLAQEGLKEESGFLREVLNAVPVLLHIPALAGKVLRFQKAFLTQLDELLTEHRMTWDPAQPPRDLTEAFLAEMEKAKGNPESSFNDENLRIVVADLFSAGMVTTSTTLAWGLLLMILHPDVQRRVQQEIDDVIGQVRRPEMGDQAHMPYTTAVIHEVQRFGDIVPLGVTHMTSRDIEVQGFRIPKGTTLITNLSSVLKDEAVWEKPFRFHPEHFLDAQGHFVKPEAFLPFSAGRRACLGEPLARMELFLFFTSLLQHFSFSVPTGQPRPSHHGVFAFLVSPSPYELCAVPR
Procedure: as §4

Q: With `O=C(Cc1ccc(NC(=O)c2cccc(Cl)c2)cc1)NCc1ccccc1` [Compound 4e, N-(4-(2-(benzylamino)-2-oxoethyl)phenyl)-3-chlorobenzamide] as the compound, how does the IC50 (HL60 leukemia cell line) read?
A: 1620 ± 130 nM

Q: What about the “Mouse PPB (% free)” value [1] of the same compound?
A: 0.8 % free

Q: What about the half-life [2] of the same compound?
A: > 60 min

Q: What about the “Mic. Ctrl. Mouse % 60 min” value [2] of the same compound?
A: 73%

Q: And the half-life [3]?
A: > 60 min

Q: And the “Mic. Ctrl. Human % 60 min” value [3]?
A: 102%

Q: And the IC50 [4]?
A: 1900 ± 80 nM

Q: What about the IC50 (CYP2C9) of the same compound?
A: > 10000 nM

Q: What about the no inhibition of CYP2C9 at concentrations up to (CYP2C9) of the same compound?
A: > 10 µM

Q: What about the IC50 (NB4 leukemia cell line) of the same compound?
A: 940 nM

Q: What about the IC50 (NB4 leukemia cell line; Homo sapiens) of the same compound?
A: 960 nM

Q: And the IC50 (CYP2D6)?
A: > 10000 nM

Q: And the no inhibition of CYP2D6 at concentrations up to (CYP2D6)?
A: > 10 µM

Q: For `O=C(Cc1ccc(NC(=O)c2cccc(Cl)n2)cc1)NCc1ccccc1` [Compound 4n, N-(4-(2-(benzylamino)-2-oxoethyl)phenyl)-6-chloropicolinamide], which IC50 (HL60 leukemia cell line) is on record?
A: 2220 ± 60 nM

Q: What about the “Mouse PPB (% free)” value [1] of the same compound?
A: Unstable

Q: What about the half-life [2] of the same compound?
A: 3.1 min

Q: What about the “Mic. Ctrl. Mouse % 60 min” value [2] of the same compound?
A: 5.0%

Q: What about the half-life [3] of the same compound?
A: 40.1 min

Q: And the “Mic. Ctrl. Human % 60 min” value [3]?
A: 98%

Q: And the IC50 [4]?
A: 1960 ± 470 nM

Q: And the IC50 (CYP2C9)?
A: > 10000 nM

Q: What about the no inhibition of CYP2C9 at concentrations up to (CYP2C9) of the same compound?
A: > 10 µM

Q: And the IC50 (NB4 leukemia cell line; Homo sapiens)?
A: 1540 ± 660 nM

Q: And the IC50 (CYP2D6)?
A: > 10000 nM

Q: What about the no inhibition of CYP2D6 at concentrations up to (CYP2D6) of the same compound?
A: > 10 µM
